Key:
Experiment in all cases: relative viability (nuclei count vs DMSO), 5 days (fraction); higher = more cells survive
NCI-H1651 = tested on: NCI-H1651
In short: (§1)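 Dosing by pin tool came one day after lung cancer cell lines were seeded in 1536-well plates, using either one drug or a fixed anchor-drug dose plus five library-drug doses (not always all listed) in √10 steps. After 5 days, nuclei were counted on 4× images. Relative viability is treated-well nuclei count divided by vehicle-well nuclei count, and values are medians of duplicate plates.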

SK-LU-1 = tested on: SK-LU-1
In short: as §1

COR-L 105 = tested on: COR-L 105
In short: as §1

NCI-H2085 = tested on: NCI-H2085
In short: as §1

PC-3 [JPC-3] = tested on: PC-3 [JPC-3]
In short: as §1

NCI-H1944 = tested on: NCI-H1944
In short: as §1

NCI-H1793 = tested on: NCI-H1793
In short: as §1

EMC-BAC-2 = tested on: EMC-BAC-2
In short: as §1

NCI-H1437 = tested on: NCI-H1437
In short: as §1

LK-2 = tested on: LK-2
In short: as §1

NCI-H2228 = tested on: NCI-H2228
In short: as §1

H3255 = tested on: H3255
In short: as §1

NCI-H2087 = tested on: NCI-H2087
In short: as §1

NCI-H1755 = tested on: NCI-H1755
In short: as §1

CAL-12T = tested on: CAL-12T
In short: as §1

NCI-H1395 = tested on: NCI-H1395
In short: as §1

NCI-H661 = tested on: NCI-H661
In short: as §1

LXF-289 = tested on: LXF-289
In short: as §1

NCI-H2347 = tested on: NCI-H2347
In short: as §1

EKVX = tested on: EKVX
In short: as §1

NCI-H1915 = tested on: NCI-H1915
In short: as §1

LC-2-ad = tested on: LC-2-ad
In short: as §1

SK-MES-1 = tested on: SK-MES-1
In short: as §1

Compound `O=C(O)CCCCC(CCSCc1ccccc1)SCc1ccccc1` (centres undefined) [CPI-613] + Cc1cc(Nc2cc(N3CCN(C)CC3)nc(Sc3ccc(NC(=O)C4CC4)cc3)n2)n[nH]1 [Tozasertib] (partner 0.1 µM) has a relative viability (NCI-H1651; first compound 5 µM) of 0.705, a relative viability (NCI-H1651; first compound 15.81 µM) of 0.588 and a relative viability (NCI-H1651; first compound 50 µM) of 0.77. The relative viability (NCI-H1651; first compound 158.11 µM) was 0.275, the relative viability (NCI-H1651; first compound 500 µM) was 0.109 and the relative viability (SK-LU-1; first compound 5 µM) was 0.321. It also gave a relative viability (SK-LU-1; first compound 15.81 µM) of 0.244, a relative viability (SK-LU-1; first compound 50 µM) of 0.299 and a relative viability (SK-LU-1; first compound 158.11 µM) of 0.25. The relative viability (SK-LU-1; first compound 500 µM) was 0.195, the relative viability (COR-L 105; first compound 5 µM) was 0.288 and the relative viability (COR-L 105; first compound 15.81 µM) was 0.348. The relative viability (COR-L 105; first compound 50 µM) was 0.321, the relative viability (COR-L 105; first compound 158.11 µM) was 0.321 and the relative viability (COR-L 105; first compound 500 µM) was 0.137. It also gave a relative viability (NCI-H2085; first compound 5 µM) of 0.769, a relative viability (NCI-H2085; first compound 15.81 µM) of 0.683 and a relative viability (NCI-H2085; first compound 50 µM) of 0.734. The relative viability (NCI-H2085; first compound 158.11 µM) was 0.386, the relative viability (NCI-H2085; first compound 500 µM) was 0.105 and the relative viability (PC-3 [JPC-3]; first compound 5 µM) was 0.81. The relative viability (PC-3 [JPC-3]; first compound 15.81 µM) was 0.808, the relative viability (PC-3 [JPC-3]; first compound 50 µM) was 0.762 and the relative viability (PC-3 [JPC-3]; first compound 158.11 µM) was 0.499. The relative viability (PC-3 [JPC-3]; first compound 500 µM) was 0.498, the relative viability (NCI-H1944; first compound 5 µM) was 0.264 and the relative viability (NCI-H1944; first compound 15.81 µM) was 0.233. The relative viability (NCI-H1944; first compound 50 µM) was 0.268, the relative viability (NCI-H1944; first compound 158.11 µM) was 0.195 and the relative viability (NCI-H1944; first compound 500 µM) was 0.127. It also gave a relative viability (NCI-H1793; first compound 5 µM) of 0.297, a relative viability (NCI-H1793; first compound 15.81 µM) of 0.281 and a relative viability (NCI-H1793; first compound 50 µM) of 0.308. It also gave a relative viability (NCI-H1793; first compound 158.11 µM) of 0.149, a relative viability (NCI-H1793; first compound 500 µM) of 0.0274 and a relative viability (EMC-BAC-2; first compound 5 µM) of 0.333. For the same compound, the relative viability (EMC-BAC-2; first compound 15.81 µM) was 0.287, the relative viability (EMC-BAC-2; first compound 50 µM) was 0.284 and the relative viability (EMC-BAC-2; first compound 158.11 µM) was 0.124. For the same compound, the relative viability (EMC-BAC-2; first compound 500 µM) was 0.0704, the relative viability (NCI-H1437; first compound 5 µM) was 0.374 and the relative viability (NCI-H1437; first compound 15.81 µM) was 0.39. It also gave a relative viability (NCI-H1437; first compound 50 µM) of 0.407, a relative viability (NCI-H1437; first compound 158.11 µM) of 0.156 and a relative viability (NCI-H1437; first compound 500 µM) of 0.131. For the same compound, the relative viability (LK-2; first compound 5 µM) was 0.173, the relative viability (LK-2; first compound 15.81 µM) was 0.162 and the relative viability (LK-2; first compound 50 µM) was 0.189. It also gave a relative viability (LK-2; first compound 158.11 µM) of 0.181, a relative viability (LK-2; first compound 500 µM) of 0.139 and a relative viability (NCI-H2228; first compound 5 µM) of 0.304. For the same compound, the relative viability (NCI-H2228; first compound 15.81 µM) was 0.204, the relative viability (NCI-H2228; first compound 50 µM) was 0.236 and the relative viability (NCI-H2228; first compound 158.11 µM) was 0.146. It also gave a relative viability (NCI-H2228; first compound 500 µM) of 0.112, a relative viability (H3255; first compound 5 µM) of 0.529 and a relative viability (H3255; first compound 15.81 µM) of 0.615. It also gave a relative viability (H3255; first compound 50 µM) of 0.579, a relative viability (H3255; first compound 500 µM) of 0.753 and a relative viability (NCI-H2087; first compound 5 µM) of 0.316. It also gave a relative viability (NCI-H2087; first compound 15.81 µM) of 0.256, a relative viability (NCI-H2087; first compound 50 µM) of 0.21 and a relative viability (NCI-H2087; first compound 158.11 µM) of 0.0949. For the same compound, the relative viability (NCI-H2087; first compound 500 µM) was 0.0489, the relative viability (NCI-H1755; first compound 5 µM) was 0.558 and the relative viability (NCI-H1755; first compound 15.81 µM) was 0.52. It also gave a relative viability (NCI-H1755; first compound 50 µM) of 0.581, a relative viability (NCI-H1755; first compound 158.11 µM) of 0.402 and a relative viability (NCI-H1755; first compound 500 µM) of 0.356. For the same compound, the relative viability (CAL-12T; first compound 5 µM) was 0.284, the relative viability (CAL-12T; first compound 15.81 µM) was 0.253 and the relative viability (CAL-12T; first compound 50 µM) was 0.256. For the same compound, the relative viability (CAL-12T; first compound 158.11 µM) was 0.0605, the relative viability (CAL-12T; first compound 500 µM) was 0.0057 and the relative viability (NCI-H1395; first compound 5 µM) was 0.691. The relative viability (NCI-H1395; first compound 15.81 µM) was 0.632, the relative viability (NCI-H1395; first compound 50 µM) was 0.653 and the relative viability (NCI-H1395; first compound 158.11 µM) was 0.752. It also gave a relative viability (NCI-H1395; first compound 500 µM) of 0.612, a relative viability (NCI-H661; first compound 5 µM) of 0.358 and a relative viability (NCI-H661; first compound 15.81 µM) of 0.324. It also gave a relative viability (NCI-H661; first compound 50 µM) of 0.348, a relative viability (NCI-H661; first compound 158.11 µM) of 0.331 and a relative viability (NCI-H661; first compound 500 µM) of 0.203. For the same compound, the relative viability (LXF-289; first compound 5 µM) was 0.178, the relative viability (LXF-289; first compound 15.81 µM) was 0.142 and the relative viability (LXF-289; first compound 50 µM) was 0.176. For the same compound, the relative viability (LXF-289; first compound 158.11 µM) was 0.0521, the relative viability (LXF-289; first compound 500 µM) was 0.0406 and the relative viability (NCI-H2347; first compound 5 µM) was 0.526. For the same compound, the relative viability (NCI-H2347; first compound 15.81 µM) was 0.561, the relative viability (NCI-H2347; first compound 50 µM) was 0.566 and the relative viability (NCI-H2347; first compound 158.11 µM) was 0.552. The relative viability (NCI-H2347; first compound 500 µM) was 0.524, the relative viability (EKVX; first compound 5 µM) was 0.384 and the relative viability (EKVX; first compound 15.81 µM) was 0.401. For the same compound, the relative viability (EKVX; first compound 50 µM) was 0.366, the relative viability (EKVX; first compound 158.11 µM) was 0.368 and the relative viability (EKVX; first compound 500 µM) was 0.41. It also gave a relative viability (NCI-H1915; first compound 5 µM) of 0.44, a relative viability (NCI-H1915; first compound 15.81 µM) of 0.4 and a relative viability (NCI-H1915; first compound 50 µM) of 0.322. For the same compound, the relative viability (NCI-H1915; first compound 158.11 µM) was 0.241, the relative viability (NCI-H1915; first compound 500 µM) was 0.111 and the relative viability (LC-2-ad; first compound 5 µM) was 0.45. For the same compound, the relative viability (LC-2-ad; first compound 15.81 µM) was 0.398, the relative viability (LC-2-ad; first compound 50 µM) was 0.459 and the relative viability (LC-2-ad; first compound 158.11 µM) was 0.267. It also gave a relative viability (LC-2-ad; first compound 500 µM) of 0.0577, a relative viability (SK-MES-1; first compound 5 µM) of 0.895 and a relative viability (SK-MES-1; first compound 15.81 µM) of 0.783. The relative viability (SK-MES-1; first compound 50 µM) was 0.753, the relative viability (SK-MES-1; first compound 158.11 µM) was 0.138 and the relative viability (SK-MES-1; first compound 500 µM) was 0.106.
